≈ marks a conversion by molar mass, not a printed value.
Assays:
Staphylococcus aureus [1] = experiment: Antibacterial activity against Staphylococcus aureus ATCC 29213 assessed as inhibition of bacterial growth incubated for 24 hrs by CLSI based broth dilution method; format: functional
Escherichia coli [2] = experiment: Antibacterial activity against Escherichia coli ATCC 25922 assessed as inhibition of bacterial growth incubated for 24 hrs by CLSI based broth dilution method; format: functional
[3] = Hemolytic activity in rabbit RBC measured after 1 hrs by multimode reader assay; format: toxicity, cell-based, Oryctolagus cuniculus, Erythrocyte; settings: rabbit red blood cells (erythrocytes)
Klebsiella pneumoniae = experiment: Antibacterial activity against Klebsiella pneumoniae ATCC 14581 assessed as inhibition of bacterial growth incubated for 24 hrs by CLSI based broth dilution method; format: functional
Staphylococcus aureus [4] = experiment: Antibacterial activity against Staphylococcus aureus ATCC 29213 assessed as fold increase in MIC incubated for 24 hrs in presence of 140 mM Na+ by CLSI based broth dilution method; format: functional
Staphylococcus aureus [5] = experiment: Antibacterial activity against Staphylococcus aureus ATCC 29213 assessed as fold increase in MIC incubated for 24 hrs in presence of 2.5 mM Ca2+ by CLSI based broth dilution method; format: functional
Staphylococcus aureus [6] = experiment: Antibacterial activity against Staphylococcus aureus NCTC10442 assessed as fold increase in MIC incubated for 24 hrs in presence of 4.5 mM K+ by CLSI based broth dilution method; format: functional
Acinetobacter baumannii = experiment: Antibacterial activity against Acinetobacter baumannii ATCC 17978 assessed as fold increase in MIC incubated for 24 hrs in presence of 140 mM Na+ by CLSI based broth dilution method; format: functional
Escherichia coli [7] = experiment: Antibacterial activity against Escherichia coli ATCC 25922 assessed as fold increase in MIC incubated for 24 hrs in presence of 140 mM Na+ by CLSI based broth dilution method; format: functional
Escherichia coli [8] = experiment: Antibacterial activity against Escherichia coli ATCC 25922 assessed as fold increase in MIC incubated for 24 hrs in presence of 1 mM Mg2+ by CLSI based broth dilution method; format: functional
Staphylococcus aureus [9] = experiment: Bactericidal activity against Staphylococcus aureus ATCC 29213 assessed as bacterial killing at 8 times MIC measured after 8 hrs by time-killing assay relative to control; format: functional
Staphylococcus aureus [10] = experiment: Bactericidal activity against Staphylococcus aureus ATCC 29213 assessed as bacterial killing at 8 times MIC measured after 24 hrs by time-killing assay relative to control; format: functional
Staphylococcus aureus [11] = experiment: Bactericidal activity against Staphylococcus aureus ATCC 29213 assessed as log reduction in viable bacteria at 8 times MIC measured after 8 hrs by time-killing assay; format: functional
Staphylococcus aureus [12] = experiment: Induction of cell death in Staphylococcus aureus ATCC 29213 assessed as residual living cells at 8 times MIC incubated for 2 hrs by SYTO 9/PI staining based fluorescence analysis relative to control; format: functional
Pseudomonas aeruginosa = experiment: Induction of cell death in Pseudomonas aeruginosa ATCC 9027 assessed as residual living cells at 8 times MIC incubated for 2 hrs by SYTO 9/PI staining based fluorescence analysis relative to control; format: functional
Lipoteichoic acid [13] = experiment: Displacement of BODIPY-TR-cadaverine from Bacillus subtilis Lipoteichoic acid at 1 times MIC measured for 30 mins by fluorescence based microplate reader assay relative to control
Lipoteichoic acid [14] = experiment: Displacement of BODIPY-TR-cadaverine from Bacillus subtilis Lipoteichoic acid at 8 times MIC measured for 30 mins by fluorescence based microplate reader assay relative to control
Lipopolysaccharide (LPS) [15] = experiment: Displacement of BODIPY-TR-cadaverine from Escherichia coli Lipopolysaccharide at 1 times MIC measured for 30 mins by fluorescence based microplate reader assay relative to control
Lipopolysaccharide (LPS) [16] = experiment: Displacement of BODIPY-TR-cadaverine from Escherichia coli Lipopolysaccharide at 4 times MIC measured for 30 mins by fluorescence based microplate reader assay relative to control
Lipopolysaccharide (LPS) [17] = experiment: Displacement of BODIPY-TR-cadaverine from Escherichia coli Lipopolysaccharide at 8 times MIC measured for 30 mins by fluorescence based microplate reader assay relative to control
Escherichia coli [18] = experiment: Induction of drug resistance in Escherichia coli ATCC 25922 assessed as fold change in MIC measured after 19 passages by CLSI based broth dilution method; format: functional
[19] = Cytotoxicity against mouse NCTC clone 929 cells assessed as cell viability at 12.5 ug/ml incubated for 24 hrs by CCK-8 assay relative to control; format: toxicity, cell-based; settings: at 12.5 µg/mL, read-out: Activity
[20] = Cytotoxicity against mouse NCTC clone 929 cells assessed as cell viability at 50 ug/ml incubated for 24 hrs by CCK-8 assay relative to control; format: toxicity, cell-based; settings: at 50 µg/mL, read-out: Activity
[21] = Cytotoxicity against HEK293 cells assessed as cell viability at 3.125 ug/ml incubated for 24 hrs by CCK-8 assay relative to control; format: toxicity, cell-based; settings: human, at 3.125 µg/mL, read-out: Activity
[22] = Cytotoxicity against HEK293 cells assessed as cell viability at 25 ug/ml incubated for 24 hrs by CCK-8 assay relative to control; format: toxicity, cell-based; settings: human, at 25 µg/mL, read-out: Activity
[23] = Cytotoxicity against HEK293 cells assessed as cell viability at 50 ug/ml incubated for 24 hrs by CCK-8 assay relative to control; format: toxicity, cell-based; settings: human, at 50 µg/mL, read-out: Activity
Staphylococcus aureus [24] = experiment: Antibiofilm activity against Staphylococcus aureus ATCC 29213 assessed reduction in biofilm formation at 0.78 ug/ml measured after 24 hrs by crystal violet staining based assay relative to control; format: functional; design: scale not given: the % may be the effect or the level left; settings: dose 0.78 µg/ml
Staphylococcus aureus [25] = experiment: Antibiofilm activity against Staphylococcus aureus ATCC 29213 assessed reduction in biofilm formation at […] ug/ml measured after 24 hrs by crystal violet staining based assay relative to control; format: functional; design: scale not given: the % may be the effect or the level left; settings: dose […] microg/ml, 1.56 ug/mL
Escherichia coli [26] = experiment: Antibiofilm activity against Escherichia coli ATCC 25922 assessed reduction in biofilm formation at 0.78 ug/ml measured after 24 hrs by crystal violet staining based assay relative to control; format: functional; design: scale not given: the % may be the effect or the level left; settings: dose 0.78 µg/ml
Staphylococcus aureus [27] = experiment: Antibacterial activity against Staphylococcus aureus ATCC 29213 assessed as eradication of preformed bacterial biofilm by measuring residual biofilm viability at […] ug/ml incubated for 24 hrs by crystal violet staining based assay relative to control; format: functional; settings: dose […] microg/ml, 1.56 ug/mL
Staphylococcus aureus [28] = experiment: Antibacterial activity against Staphylococcus aureus ATCC 29213 assessed as eradication of preformed bacterial biofilm by measuring residual biofilm viability at 6.25 ug/ml incubated for 24 hrs by crystal violet staining based assay relative to control; format: functional; settings: dose 6.25 µg/ml
Escherichia coli [29] = experiment: Antibacterial activity against Escherichia coli ATCC 25922 assessed as eradication of preformed bacterial biofilm by measuring residual biofilm viability at 3.125 ug/ml incubated for 24 hrs by crystal violet staining based assay relative to control; format: functional; settings: dose 3.125 µg/ml
Escherichia coli [30] = experiment: Antibacterial activity against Escherichia coli ATCC 25922 assessed as eradication of preformed bacterial biofilm by measuring residual biofilm viability at 12.5 ug/ml incubated for 24 hrs by crystal violet staining based assay relative to control; format: functional; settings: dose 12.5 µg/ml
Staphylococcus aureus [31] = experiment: Antibacterial activity against Staphylococcus aureus ATCC 29213 in C57BL/6 mouse model of bacterial keratitis assessed as log reduction in number of viable bacterial colonies in infected cornea at 0.8 mg/ml, TOP administered 4 times a day for 3 consecutive days; format: functional; settings: time 3 day

## C=C[C@@](C)(/C=C/c1ccc(OCCCCN(CCCN(C)C)CCCN(C)C)cc1)CCC=C(C)C
Staphylococcus aureus [1]
  MIC: 3.12 µg/mL (≈ 6.28 µM)
Escherichia coli [2]
  MIC: 3.12 µg/mL (≈ 6.28 µM)
[3]
  HC50 at 1 h: 113 µg/mL
Klebsiella pneumoniae
  MIC: 3.12 µg/mL (≈ 6.28 µM)
Staphylococcus aureus [4]
  fold change (FC): <2
Staphylococcus aureus [5]
  fold change (FC): <2
Staphylococcus aureus [6]
  fold change (FC): <2
Acinetobacter baumannii
  fold change (FC): <2
Escherichia coli [7]
  fold change (FC): <2
Escherichia coli [8]
  fold change (FC): <2
Staphylococcus aureus [9]
  Activity: >=99.9%
Staphylococcus aureus [10]
  Activity: 100%
Staphylococcus aureus [11]
  log(activity): 3.52
Staphylococcus aureus [12]
  Activity: 2.2%
Pseudomonas aeruginosa
  Activity: 0.3%
Lipoteichoic acid [13]
  Activity: 25.4%
Lipoteichoic acid [14]
  Activity: 57.9%
Lipopolysaccharide (LPS) [15]
  Activity: 36.9%
Lipopolysaccharide (LPS) [16]
  Activity: 64.4%
Lipopolysaccharide (LPS) [17]
  Activity: 85.6%
Escherichia coli [18]
  fold change (FC): < 4
[19]
  viability at 24 h, 12.5 ug/ml: 84.5%
[20]
  viability at 24 h, 50 ug/ml: 36%
[21]
  viability at 24 h, 3.125 ug/ml: 94.1%
[22]
  viability at 24 h, 25 ug/ml: 63.3%
[23]
  viability at 24 h, 50 ug/ml: 14.4%
Staphylococcus aureus [24]
  Activity: 12.91%
Staphylococcus aureus [25]
  Activity: 42.21%
Escherichia coli [26]
  Activity: 8.71%
Staphylococcus aureus [27]
  Activity: 75.68%
Staphylococcus aureus [28]
  Activity: 34.11%
Escherichia coli [29]
  Activity: 49.85%
Escherichia coli [30]
  Activity: 10.78%
Staphylococcus aureus [31]
  log(activity): 5.7
